Data taken from US12497396B2, “Nitrogen-containing heterocyclic derivatives, method therefor and application therefor as inhibitors of KRAS G12C for the treatment of cancers” (SHANGHAI HANSOH BIOMEDICAL CO., LTD., priority 2019, dated 2025).
Read-outs that look alike come from different tables or passages of the source.

Key:
[1] = test system: human lung cancer NCI-H358 cell xenograft; experiment: In vivo pharmacodynamics on human lung cancer NCI-H358 cell xenograft tumor model; design: species or system BALB/c nude mice
Experimental: • BALB/c nude mice, 6-8 weeks old, female, purchased from Shanghai Xipuer-Bikai Experimental Animal Co., Ltd. 6.3.2 Cell Culture and Cell Suspension Preparation • 1) MiaPaca-2 cells were taken out from the cell bank and resuscitated with DMEM medium (DMEM+10% FBS), the resuscitated cells were placed in a cell culture flask (labeled with cell type, date, name of cultured person, etc.) and cultured in a CO2 incubator (incubator temperature was 37° C., CO2 concentration was 5%) (the method of resuscitating NCI-H358 cells was the same as MiaPaca-2 cells in test embodiment 5, and the culture medium was changed to RPMI-1640 medium). • 2) Passage was conducted every three to five days, and the cells was continued to be cultured in CO2 incubator after passage. The process was repeated until the cell count meets the in vivo pharmacodynamic requirements. • 3) MiaPaca-2 cells were collected and counted by automatic cell counter, according to the counting results, the cells were re-suspended with PBS and Matrigel (ratio was 1:1) to make cell suspension (cell density was 5×10^7/mL), then placed in a ice box for use (NCI-H358 cells were re-suspended with PBS without adding Matrigel, cell density was 1×10^8/mL). 6.3.3 Sample Preparation: • 1) Solvent: solvent (0.5% CMC-Na+1% Tween 80), storage condition: 4° C.
0.5 g of CMC-Na was weighted, dissolved in ddH2O, then 1.0 mL of Tween 80 was added and the mixture was stirred to mix well, and the volume was finally set to 100 mL. • 2) Compound to be tested (10 mg/kg) was prepared:
8.42 mg of AMG510 compound was weighted, 8.260 mL of solvent was added, a uniform solution was obtained by ultrasound, vortexing and stirring.
7.81 mg of embodiment compound 165-1 was weighted, 7.654 mL of solvent was added, a uniform solution was obtained by ultrasound, vortexing and stirring.
• 1) Before inoculation, nude mice were labeled with disposable universal ear tags of rats and mice; • 2) when inoculating, the cell suspension was mixed well, 0.1-1 mL cell suspension was extracted with a 1 mL syringe, bubbles were removed, and then the syringe was put on an ice bag for later use; • 3) the nude mice was held with left hand, the right back of nude mice near the right shoulder (inoculation site) was disinfected with 75% alcohol, and inoculation was started after 30 seconds; • 4) the experimental nude mice were inoculated in turn (each mouse was inoculated with 0.1 mL of cell suspension); 6.3.4 Tumor-Bearing Mouse were Measured, Grouped, and Administered: • 1) According to the tumor growth, the tumor was measured on the 18th day after inoculation, and the tumor size was calculated. tumor volume (mm^3)=length (mm)×width (mm)×width (mm)/2 Tumor volume calculation: • 2) The tumor-bearing mice were grouped according to their body weight and tumor size using a randomized grouping method. • 3) According to the grouping results, the administration of the test drug was started (administration method: oral administration; administration dose: 10 mg/kg; administration volume: 10 mL/kg; administration frequency: once a day; administration period: 21 days; solvents: 0.5% CMC/1% Tween 80). • 4) The tumor was measured and weighed twice a week after the test drug was started to be given. • 5) After the experiment, all animals were euthanized. • 6) Data was processed with software such as Excel. […]

[2] = Pharmacokinetics in MiaPaca 2 tumor-bearing mice (plasma, tumor); type: in vivo; conditions: female, mouse, po, 6 mg/kg p.o.
Experimental: The pharmacokinetic behavior of embodiment compound 165 and AMG-510 compound, administered orally at a dose of 6 mg/kg, in mice (plasma, tumor tissue and intestine) was studied using MiaPaca 2 tumor-bearing mice as test animals.
24 MiaPaca 2 tumor-bearing mice, females. 3 for each time point (0 h, 1 h, 2 h, 4 h, 6 h, 8 h, 16 h, 24 h). Shanghai xipuer-bikai Laboratory Animal Co., Ltd, Animal Production License No. (SCXK (Shanghai) 2018-0006.
Embodiment compound 165-1 and compound AMG-510 were weighed and dissolved in the solution, the mixture was shaken well, and ultrasound was performed for 15 minutes to obtain a uniform suspension with a concentration of 0.6 mg/mL.
MiaPaca 2 tumor-bearing mice were administered at a dose of 6 mg/kg in a volume of 10 mL/kg, respectively, based on body weight p.o. after fasting (animals were not administered at point 0 h).
Before and after administration, mice were sacrificed with CO2, 0.5 mL blood was collected from the heart and placed in EDTA-2K tube, centrifuged at 4° C. […] The duodenum, ileum and colon tissues were cut with scissors, the contents were removed and cleaned twice with PBS, after absorbing water with absorbent paper, they were weighed, placed in a 2 mL centrifuge tube and stored at −80° C.

Compound: C=CC(=O)N1C[C@H](C)N(c2nc(=O)n(-c3c(SC)ccnc3C(C)C)c3nc(-c4c(N)ccc(Cl)c4F)c(Cl)cc23)C[C@H]1C (single isomer, unassigned) [Embodiment 165-1]
- TGI (%) Day 15 ([1]; Day 15, 10 mpk oral once a day): 67.41%
- tumor volume (mm^3, Mean ± SD) Day 15 ([1]; Day 15, 10 mpk oral once a day): 267 ± 155 mm^3
- ΔT/ΔC(%) Day 15 ([1]; Day 15, 10 mpk oral once a day): 32.59%
- tumor volume (mm^3, Mean ± SD) Day 0 ([1]; baseline Day 0, 10 mpk oral once a day): 203 ± 74 mm^3
- Kp ([2]; exposure in tumor to exposure in plasma, read-out: Ratio (T/P)): 0.57
- MRT ([2]; plasma, read-out: MRT (hr) Plasma): 0.9 h
- half-life ([2]; plasma, read-out: T1/2 (hr) Plasma (converted)): 0.5 h
- MRT ([2]; tumor, read-out: MRT (hr) Tumor): 1.5 h
- half-life ([2]; tumor, read-out: T1/2 (hr) Tumor (converted)): 0.9 h
